The source made the active and inactive calls. The rule behind the calls is not given here. *1 amine or outer side, *2 acyl side, *3 side chain or, on linkers, in order; H or OH if unused. Where a SMILES comes first, the peptide text is derived from it. [ ]: non-standard residue; d: D form. X2 = CNNCCC[C@H](N[*:1])C(=O)[*:2]
How the values were obtained:
[1] = target: T1, Lysine-specific histone demethylase 1A (Homo sapiens, UniProt O60341); test: Inhibition of LSD1 in human HeLa cells assessed as H3K4me2/H3 ratio at 20 uM after 24 hrs by Western blot analysis in absence of fetal bovine serum; type: cell-based
[2] = target: T1, Lysine-specific histone demethylase 1A; settings: 22 h
Description: Drug metabolism assessed as LSD1 (unknown origin)-mediated compound-FAD adduct formation after 22 hrs by MALDI-TOF mass spectrometric analysis

[3] = target: T2, Lysine-specific demethylase 5A (Homo sapiens, UniProt P29375); test: Inhibition of JARID1A in human HeLa cells assessed as H3K4me3/H3 ratio at 10 uM after 24 hrs by Western blot analysis in absence of fetal bovine serum; type: cell-based
T2 sequence (P29375 whole entry): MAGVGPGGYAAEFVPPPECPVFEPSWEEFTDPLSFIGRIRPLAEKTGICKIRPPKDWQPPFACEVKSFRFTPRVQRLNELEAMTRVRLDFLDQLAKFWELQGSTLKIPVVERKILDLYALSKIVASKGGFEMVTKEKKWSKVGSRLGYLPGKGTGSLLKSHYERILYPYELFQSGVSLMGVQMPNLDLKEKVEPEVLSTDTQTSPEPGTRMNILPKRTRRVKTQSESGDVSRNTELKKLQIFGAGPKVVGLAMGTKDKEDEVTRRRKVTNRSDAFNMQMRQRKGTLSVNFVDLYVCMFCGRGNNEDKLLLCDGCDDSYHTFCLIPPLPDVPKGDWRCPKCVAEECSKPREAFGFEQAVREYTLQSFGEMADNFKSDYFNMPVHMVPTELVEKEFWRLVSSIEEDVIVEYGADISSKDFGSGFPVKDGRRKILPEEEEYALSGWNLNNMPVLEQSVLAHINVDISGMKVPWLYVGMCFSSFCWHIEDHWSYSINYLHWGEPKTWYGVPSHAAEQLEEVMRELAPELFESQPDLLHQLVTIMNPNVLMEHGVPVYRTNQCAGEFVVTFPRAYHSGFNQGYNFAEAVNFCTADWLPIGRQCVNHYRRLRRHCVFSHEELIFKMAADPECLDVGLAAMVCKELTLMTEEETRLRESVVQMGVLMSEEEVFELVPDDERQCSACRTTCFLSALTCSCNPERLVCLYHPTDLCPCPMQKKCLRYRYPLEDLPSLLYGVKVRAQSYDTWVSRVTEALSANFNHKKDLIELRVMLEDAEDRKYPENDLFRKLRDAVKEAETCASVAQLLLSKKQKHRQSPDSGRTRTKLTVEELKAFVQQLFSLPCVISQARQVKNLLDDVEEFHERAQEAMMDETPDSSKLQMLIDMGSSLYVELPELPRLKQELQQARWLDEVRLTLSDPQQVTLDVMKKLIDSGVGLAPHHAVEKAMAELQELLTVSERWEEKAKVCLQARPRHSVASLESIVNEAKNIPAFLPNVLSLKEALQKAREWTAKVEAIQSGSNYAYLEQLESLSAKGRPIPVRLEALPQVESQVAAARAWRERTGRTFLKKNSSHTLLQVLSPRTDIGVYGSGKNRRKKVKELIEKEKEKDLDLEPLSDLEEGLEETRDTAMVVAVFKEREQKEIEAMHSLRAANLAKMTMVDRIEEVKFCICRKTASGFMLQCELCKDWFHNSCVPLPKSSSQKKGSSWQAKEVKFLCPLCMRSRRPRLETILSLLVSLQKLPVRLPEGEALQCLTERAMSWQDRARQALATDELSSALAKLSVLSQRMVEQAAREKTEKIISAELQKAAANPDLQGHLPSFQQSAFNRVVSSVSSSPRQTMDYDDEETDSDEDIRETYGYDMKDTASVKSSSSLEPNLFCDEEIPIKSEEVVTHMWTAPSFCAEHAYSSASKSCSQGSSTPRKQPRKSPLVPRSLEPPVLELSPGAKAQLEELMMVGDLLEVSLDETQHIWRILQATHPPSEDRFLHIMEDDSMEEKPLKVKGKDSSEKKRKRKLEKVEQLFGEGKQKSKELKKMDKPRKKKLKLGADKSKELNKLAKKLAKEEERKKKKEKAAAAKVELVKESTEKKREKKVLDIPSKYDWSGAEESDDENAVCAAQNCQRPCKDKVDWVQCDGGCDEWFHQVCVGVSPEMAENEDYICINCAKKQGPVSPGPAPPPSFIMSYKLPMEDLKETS

[4] = target: T2, Lysine-specific demethylase 5A; test: Inhibition of JARID1A in human HeLa cells assessed as H3K4me3/H3 ratio at 20 uM after 24 hrs by Western blot analysis in absence of fetal bovine serum; type: cell-based
[5] = target: T3, Lysine-specific histone demethylase 2 (Homo sapiens, UniProt Q8NB78); test: biochemical
T3 sequence (Q8NB78 whole entry): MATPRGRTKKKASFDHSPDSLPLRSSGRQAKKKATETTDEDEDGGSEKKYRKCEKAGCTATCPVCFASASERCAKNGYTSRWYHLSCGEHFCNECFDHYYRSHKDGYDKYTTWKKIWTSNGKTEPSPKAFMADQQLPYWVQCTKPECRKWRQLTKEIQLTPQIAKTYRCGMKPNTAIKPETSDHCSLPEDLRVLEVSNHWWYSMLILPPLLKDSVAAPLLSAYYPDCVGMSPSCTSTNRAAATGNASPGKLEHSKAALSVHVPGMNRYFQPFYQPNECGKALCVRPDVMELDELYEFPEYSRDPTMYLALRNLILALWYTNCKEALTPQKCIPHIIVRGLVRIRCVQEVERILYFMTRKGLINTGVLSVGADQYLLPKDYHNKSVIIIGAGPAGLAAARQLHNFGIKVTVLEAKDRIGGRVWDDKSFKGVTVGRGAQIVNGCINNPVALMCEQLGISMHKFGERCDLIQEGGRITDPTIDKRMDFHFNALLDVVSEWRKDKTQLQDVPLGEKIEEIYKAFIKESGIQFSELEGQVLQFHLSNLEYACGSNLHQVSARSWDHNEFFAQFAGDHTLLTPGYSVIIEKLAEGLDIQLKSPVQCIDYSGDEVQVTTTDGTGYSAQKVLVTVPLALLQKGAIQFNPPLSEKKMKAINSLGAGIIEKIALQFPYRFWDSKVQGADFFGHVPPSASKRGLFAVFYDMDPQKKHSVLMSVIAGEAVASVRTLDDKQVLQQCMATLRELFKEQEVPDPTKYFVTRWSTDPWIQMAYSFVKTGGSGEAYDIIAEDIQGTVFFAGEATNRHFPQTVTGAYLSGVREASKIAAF
Description: Inhibition of full length N-terminal His-tagged human LSD2 (1 to 822 residues) expressed in Escherichia coli BL21(DE3) cells using H3K4me2 peptide substrate by MALDI-TOF mass spectrometric analysis

[6] = target: T4, Lysine-specific histone demethylase 2 (Homo sapiens) (UniProt Q8NB78); test: Inhibition of LSD2 in human HeLa cells assessed as H3K4me1/H3 ratio at 5 uM after 24 hrs by Western blot analysis in absence of fetal bovine serum; type: cell-based
T4 sequence (whole entry): T3 sequence (Q8NB78 whole entry)

[7] = target: T5, Amine oxidase [flavin-containing] B (Homo sapiens, UniProt P27338); test: biochemical
T5 sequence (P27338 whole entry): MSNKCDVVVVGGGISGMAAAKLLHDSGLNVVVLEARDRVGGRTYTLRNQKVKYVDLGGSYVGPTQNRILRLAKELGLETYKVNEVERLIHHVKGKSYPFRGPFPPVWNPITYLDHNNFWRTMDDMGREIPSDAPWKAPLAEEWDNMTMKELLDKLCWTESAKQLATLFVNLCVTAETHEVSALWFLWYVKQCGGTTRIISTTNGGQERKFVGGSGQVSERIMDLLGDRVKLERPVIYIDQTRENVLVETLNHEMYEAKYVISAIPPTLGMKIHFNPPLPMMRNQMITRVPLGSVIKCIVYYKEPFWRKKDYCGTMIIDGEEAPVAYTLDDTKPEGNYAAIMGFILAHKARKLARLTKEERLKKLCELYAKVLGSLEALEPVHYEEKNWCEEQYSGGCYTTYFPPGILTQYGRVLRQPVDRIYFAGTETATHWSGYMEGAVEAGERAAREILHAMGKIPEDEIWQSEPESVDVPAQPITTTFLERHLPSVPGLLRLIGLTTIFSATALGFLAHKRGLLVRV
Description: Inhibition of human recombinant MAO-B expressed in baculovirus infected BTI insect cells using (4S)-4,5-dihydro-2-(6-hydroxybenzothiazolyl)-4-thiazolecarboxylic acid as substrate incubated for 60 mins by MAO-Glo assay

[8] = target: T4, Lysine-specific histone demethylase 2 (Homo sapiens); test: Inhibition of LSD2 in human HeLa cells assessed as H3K4me1/H3 ratio at 20 uM after 24 hrs by Western blot analysis in absence of fetal bovine serum; type: cell-based
[9] = target: T2, Lysine-specific demethylase 5A; test: Inhibition of JARID1A in human HeLa cells assessed as H3K4me3/H3 ratio at 5 uM after 24 hrs by Western blot analysis in absence of fetal bovine serum; type: cell-based
[10] = target: T1, Lysine-specific histone demethylase 1A; test: Inhibition of LSD1 in human HeLa cells assessed as H3K4me2/H3 ratio at 5 uM after 24 hrs by Western blot analysis in absence of fetal bovine serum; type: cell-based
[11] = target: T1, Lysine-specific histone demethylase 1A; test: biochemical
Description: Inhibition of full length N-terminal His-tagged human recombinant LSD1 (1 to 852 residues) expressed in Escherichia coli BL21(DE3) cells using H3K4me2 peptide as substrate preincubated for 5 mins followed by substrate addition measured for 30 mins by peroxidase coupled assay

[12] = species on record: Homo sapiens
[13] = target: T2, Lysine-specific demethylase 5A
Description: Inhibition of JARID1A (unknown origin) using H3K4me3 peptide substrate preincubated for 5 mins followed by substrate addition by MALDI-TOF mass spectrometric analysis

[14] = tested on: HeLa; test: Antiproliferative activity against human HeLa cells assessed as reduction in cell viability at 25 to 100 uM treated for 24 hrs measured after 48 hrs by alamar blue assay in absence of fetal bovine serum; type: functional, cell-based
[15] = target: T6, Amine oxidase [flavin-containing] A (Homo sapiens, UniProt P21397); test: biochemical
T6 sequence (P21397 whole entry): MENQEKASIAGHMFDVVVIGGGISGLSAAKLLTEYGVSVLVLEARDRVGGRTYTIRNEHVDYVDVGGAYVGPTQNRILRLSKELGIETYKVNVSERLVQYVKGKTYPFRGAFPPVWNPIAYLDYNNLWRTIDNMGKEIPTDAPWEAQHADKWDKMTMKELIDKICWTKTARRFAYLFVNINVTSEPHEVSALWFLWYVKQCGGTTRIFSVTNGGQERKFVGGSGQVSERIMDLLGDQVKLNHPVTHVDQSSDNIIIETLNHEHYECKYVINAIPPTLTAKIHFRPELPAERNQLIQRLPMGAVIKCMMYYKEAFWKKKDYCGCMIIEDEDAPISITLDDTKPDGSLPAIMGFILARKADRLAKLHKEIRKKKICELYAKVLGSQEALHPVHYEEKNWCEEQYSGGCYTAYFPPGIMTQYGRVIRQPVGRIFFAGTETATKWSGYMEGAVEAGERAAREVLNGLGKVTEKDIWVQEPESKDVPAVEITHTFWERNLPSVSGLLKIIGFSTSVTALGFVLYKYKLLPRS
Description: Inhibition of human recombinant MAO-A expressed in baculovirus infected BTI insect cells using (4S)-4,5-dihydro-2-(6-hydroxybenzothiazolyl)-4-thiazolecarboxylic acid as substrate incubated for 60 mins by MAO-Glo assay

[16] = species on record: Homo sapiens; remark: listed apart in the source
[17] = target: T4, Lysine-specific histone demethylase 2 (Homo sapiens); test: Inhibition of LSD2 in human HeLa cells assessed as H3K4me1/H3 ratio at 10 uM after 24 hrs by Western blot analysis in absence of fetal bovine serum; type: cell-based
[18] = target: T1, Lysine-specific histone demethylase 1A; test: Inhibition of LSD1 in human HeLa cells assessed as H3K4me2/H3 ratio at 10 uM after 24 hrs by Western blot analysis in absence of fetal bovine serum; type: cell-based
[19] = target: T1, Lysine-specific histone demethylase 1A; test: Inhibition of LSD1 in human HeLa cells assessed as increase in H3K4me2 level after 24 hrs by Western blot analysis in absence of fetal bovine serum; type: cell-based
[20] = species on record: Homo sapiens; remark: listed apart in the source
[21] = species on record: Homo sapiens; remark: listed apart in the source
[22] = target: T1, Lysine-specific histone demethylase 1A; test: Time dependent irreversible inhibition of human LSD1 using H3K4me2 peptide as substrate at 0.1 to 6.4 uM incubated for 5 mins by fluorometric assay
[23] = target: T1, Lysine-specific histone demethylase 1A; test: Irreversible inhibition of LSD1 (unknown origin) using H3K4me2 peptide substrate assessed as compound-FAD adduct formation after 22 hrs by MALDI-TOF mass spectrometric analysis
[24] = target: T1, Lysine-specific histone demethylase 1A; test: Drug metabolism assessed as LSD1 (unknown origin)-mediated demethylation of compound by measuring (3S,6S,9S,12S)-1-((S)-1-((S)-6-amino-2-((S)-2-((S)-4-amino-2-((S)-1-((S)-3-carboxy-2-((S)-2-((S)-1-((6S,9S,12S,15S,18S,21S,24S)-1,28-diamino-21-(3-guanidinopropyl)-12-(3-hydrazinylpropyl)-9-(hydroxymethyl)-1-imino-15-isobutyl-18-isopropyl-7,10,13,16,19,22-hexaoxo-6-((S)-pyrrolidine-2-carboxamido)-2,8,11,14,17,20,23-heptaazaoctacosanecarbonyl)pyrrolidine-2-carboxamido)-3-hydroxypropanamido)propanoyl)pyrrolidine-2-carboxamido)-4-oxobutanamido)-5-guanidinopentanamido)hexanoyl)pyrrolidin-2-yl)-3-(2-amino-2-oxoethyl)-12-carbamoyl-6-(4-hydroxybenzyl)-9-(hydroxymethyl)-1,4,7,10-tetraoxo-2,5,8,11-tetraazapentadecan-15-oic acid level after 22 hrs by MALDI-TOF mass spectrometric analysis; type: ADME

`CC(C)C[C@H](NC(=O)[C@H](CCCNN)NC(=O)[C@H](CO)NC(=O)[C@@H](CCCNC(=N)N)NC(=O)[C@H]1CCCN1)C(=O)N[C@H](C(=O)N[C@@H](CCCNC(=N)N)C(=O)N[C@@H](CCCCNC(=O)[C@@H](CCCNC(=N)N)NC(=O)[C@@H](CCCNC(=N)N)NC(=O)[C@@H](CCCNC(=N)N)NC(=O)[C@@H](CCCNC(=N)N)NC(=O)[C@@H](CCCNC(=N)N)NC(=O)[C@@H](CCCNC(=N)N)NC(=O)[C@@H](CCCNC(=N)N)NC(=O)[C@@H](N)CCCNC(=N)N)C(=O)N1CCC[C@H]1C(=O)N[C@@H](CO)C(=O)N[C@@H](CC(=O)O)C(=O)N1CCC[C@H]1C(=O)N[C@@H](CC(N)=O)C(=O)N[C@@H](CCCNC(=N)N)C(=O)N[C@@H](CCCCN)C(=O)N1CCC[C@H]1C(=O)N[C@H](CC(N)=O)C(=O)N[C@@H](Cc1ccc(O)cc1)C(=O)N[C@@H](CO)C(=O)N[C@@H](CCC(N)=O)C(N)=O)C(C)C` was tested, and the Ratio [1] was 2.19, the Drug metabolism [2] was “metabolite_detected” and the Ratio [3] was 0.95. It also gave a Ratio [4] of 0.98, an IC50 [5] of 13.2 µM and a Ratio [6] of 1.01. For the same compound, the IC50 [7] was 29 µM, the Ratio [8] was 1.08 and the Ratio [9] was 1.04. The Ratio [10] was 1.72, the IC50 [11] was 0.28 µM and the Ratio IC50 [12] was 94. For the same compound, the IC50 [13] was 6.74 µM, the Activity [14] was “Active” and the IC50 [15] was > 30 µM. For the same compound, the Ratio IC50 [16] was > 94, the Ratio [17] was 0.98 and the Ratio [18] was 1.9. For the same compound, the inhibition [19] was “Dose-dependent effect”, the Ratio IC50 [20] was 23 and the Ratio IC50 [21] was 16.
For `CC(C)C[C@@H](NC(=O)[C@@H](CCCNN)NC(=O)[C@@H](CO)NC(=O)[C@H](CCCNC(=N)N)NC(=O)[C@@H]1CCCN1)C(=O)N[C@@H](C(=O)N[C@H](CCCNC(=N)N)C(=O)N[C@H](CCCCN)C(=O)N1CCC[C@@H]1C(=O)N[C@H](CO)C(=O)N[C@H](CC(=O)O)C(=O)N1CCC[C@@H]1C(=O)N[C@H](CC(N)=O)C(=O)N[C@H](CCCNC(=N)N)C(=O)N[C@H](CCCCN)C(=O)N1CCC[C@@H]1C(=O)N[C@@H](CC(N)=O)C(=O)N[C@H](Cc1ccc(O)cc1)C(=O)N[C@H](CO)C(=O)N[C@H](CCC(N)=O)C(N)=O)C(C)C`, the Ratio [1] was 1.34, the TDI [22] was “Active” and the inhibition [23] was “Active”.
In the case of `CNNCCC[C@H](NC(=O)[C@H](CO)NC(=O)[C@H](CCCNC(=N)N)NC(=O)[C@@H]1CCCN1)C(=O)N[C@@H](CC(C)C)C(=O)N[C@H](C(=O)N[C@@H](CCCNC(=N)N)C(=O)N[C@@H](CCCCN)C(=O)N1CCC[C@H]1C(=O)N[C@@H](CO)C(=O)N[C@@H](CC(=O)O)C(=O)N1CCC[C@H]1C(=O)N[C@@H](CC(N)=O)C(=O)N[C@@H](CCCNC(=N)N)C(=O)N[C@@H](CCCCN)C(=O)N1CCC[C@H]1C(=O)N[C@@H](CC(N)=O)C(=O)N[C@@H](Cc1ccc(O)cc1)C(=O)N[C@@H](CO)C(=O)N[C@@H](CCC(N)=O)C(N)=O)C(C)C` (H-PRS[X2]LVRKPSDPNRKPNYSQ-NH2), the IC50 [5] is reported as > 50 µM, the IC50 [7] is reported as > 30 µM and the IC50 [11] is reported as 8.4 µM. For the same compound, the IC50 [13] was > 50 µM, the Drug metabolism [24] was “metabolite_detected” and the IC50 [15] was > 30 µM.
